# How the values were obtained:
# Experiment in all cases: In vitro antibacterial activity (MIC)
# Format in all cases: cell-based
# [1] = system: Providencia
# Text: (§1) The compound of formula I, wherein R^1 is hydrogen, and salts thereof, are active as antibacterial agents of medium potency both in vitro and in vivo, and the compounds of formula I, wherein R^1 is an ester-forming residue readily hydrolyzable in vivo are active as antibacterial agents of medium potency in vivo.
# [2] = system: Pseudomonas putida
# Text: as §1
# [3] = system: Serratia marcescens
# Text: as §1
# [4] = system: Staphylococcus aureus
# Text: as §1
# [5] = system: Escherichia coli
# Text: as §1
# [6] = system: Streptococcus pyogenes
# Text: as §1
# [7] = system: Enterobacter aerogenes; details: Klebsiella aerogenes
# Text: as §1
# [8] = system: Staphylococcus epidermis
# Text: as §1
# [9] = system: Enterobacter clocae
# Text: as §1
# [10] = system: Klebsiella pneumoniae
# Text: as §1
# [11] = system: Proteus morgani
# Text: as §1
# [12] = system: Neisseria gonorrhoeae
# Text: as §1
# [13] = system: Salmonella typhimurium; details: Salmonella enterica
# Text: as §1
# [14] = system: Streptococcus faecalis; details: Enterococcus faecalis
# Text: as §1
# [15] = system: Proteus mirabilis
# Text: as §1
# [16] = system: Pseudomonas aeruginosa
# Text: as §1
# [17] = system: Pasteurella multocida
# Text: as §1
# [18] = system: Citrobacter freundii
# Text: as §1
# [19] = system: Hemophilus influenzae; details: Haemophilus influenzae
# Text: as §1
compound,measurement,setting,value
"CC1(C)[C@H](C(=O)O)N2C(=O)C[C@H]2S1(=O)=O [Penicillanic Acid 1,1-Dioxide]",MIC,[1],100 µg/mL
same,MIC,[2],200 µg/mL
same,MIC,[3],100 µg/mL
same,MIC,[4],100 µg/mL
same,MIC,[5],50 µg/mL
same,MIC,[6],100 µg/mL
same,MIC,[7],25 µg/mL
same,MIC,[8],200 µg/mL
same,MIC,[9],100 µg/mL
same,MIC,[10],50 µg/mL
same,MIC,[11],100 µg/mL
same,MIC,[12],0.312 µg/mL
same,MIC,[13],50 µg/mL
same,MIC,[14],200 µg/mL
same,MIC,[15],100 µg/mL
same,MIC,[16],200 µg/mL
same,MIC,[17],50 µg/mL
same,MIC,[18],50 µg/mL
same,MIC,[19],50 µg/mL

# Reference: patent publication US4420426A, “6-Alpha-halopenicillanic acid 1,1-dioxides” (Pfizer Inc., priority 1980, dated 1983)
